Measurements taken from article PMC8873464, “Tuning the rate of aggregation of hIAPP into amyloid using small-molecule modulators of assembly” (Nature Communications, 2022).
One block for each compound: values may come before it.

How the values were obtained:
Assay type in all cases: binding
[1] = target: T1, human islet amyloid polypeptide (wt hIAPP) (Homo sapiens, UniProt P10997); experiment: Tyr37 fluorescence quenching titration; also SPR (Kd […]) and native ESI-MS/CID; known inhibitor used as control
T1 construct: gene IAPP; 37-residue synthetic peptide, amidated C-terminus, Cys-2/Cys-7 disulfide, monomeric
T1 sequence (P10997 34-70 limits assumed): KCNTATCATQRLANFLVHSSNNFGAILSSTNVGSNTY

[2] = target: T1, human islet amyloid polypeptide (wt hIAPP); experiment: Tyr37 fluorescence quenching and native ESI-MS (weak adduct); ThT acceleration of aggregation; no SPR response, no significant NMR CSPs
[3] = target: T1, human islet amyloid polypeptide (wt hIAPP); experiment: Tyr37 fluorescence quenching titration; also native ESI-MS, SPR (Kd […]), 2D NMR CSPs and ThT aggregation inhibition

Kd [1]: 13 µM
SMILES: O=C(O[C@@H]1Cc2c(O)cc(O)cc2O[C@@H]1c1cc(O)c(O)c(O)c1)c1cc(O)c(O)c(O)c1 [EGCG]

Kd [2]: ~280 µM
SMILES: O=C(Nc1ccccc1F)c1cnc(-c2ccccc2)nc1CCNC(=O)C1CCCCC1 [YX-A-1]

Kd [3]: 32 µM
SMILES: CC(=O)N[C@H]1C[C@@H](c2ccc(NC(=O)Cn3nnc4ccccc43)cc2)O[C@@H](C(C)C)C1 [YX-I-1]
